In ChEMBL document CHEMBL3399953, “Structure-assisted ligand-binding analysis using fluorogenic photoaffinity labeling” (Bioorg Med Chem Lett, 2015):
The source made the active and inactive calls. The rule behind the calls is not given here.

Tests used:
[1] = biological target: Glutamate dehydrogenase 1, mitochondrial (Bos taurus) (UniProt P00366); experiment: Binding affinity to bovine glutamate dehydrogenase ATP binding site using assessed as fluorescence intensity at 80 uM by photo affinity labeling/reverse-phase HPLC of Lys-Cdigest assay in presence of ATP
[2] = biological target: Glutamate dehydrogenase 1, mitochondrial (Bos taurus) (UniProt P00366); experiment: Binding affinity to bovine glutamate dehydrogenase ATP binding site using assessed as photo labeling level at 80 uM by photo affinity labeling/reverse-phase HPLC of Lys-Cdigest assay in presence of ADP
[3] = biological target: Glutamate dehydrogenase 1, mitochondrial (Bos taurus) (UniProt P00366); experiment: Binding affinity to bovine glutamate dehydrogenase ATP binding site using assessed as photo labeling level at 80 uM by photo affinity labeling/reverse-phase HPLC of Lys-Cdigest assay in presence of NADH
[4] = biological target: Glutamate dehydrogenase 1, mitochondrial (Bos taurus) (UniProt P00366); experiment: Binding affinity to bovine glutamate dehydrogenase ATP binding site using assessed as coumarin-labeled pepdite retention time at 80 uM by photo affinity labeling/reverse-phase HPLC of Lys-Cdigest assay in presence of ATP
[5] = biological target: Glutamate dehydrogenase 1, mitochondrial (Bos taurus) (UniProt P00366); experiment: Binding affinity to bovine glutamate dehydrogenase ATP binding site using assessed as photo labeling peak time at 80 uM by photo affinity labeling/reverse-phase HPLC of Lys-Cdigest assay in presence of 100 uM NADH/10 mM glutamate
[6] = biological target: Glutamate dehydrogenase 1, mitochondrial (Bos taurus) (UniProt P00366); experiment: Binding affinity to bovine glutamate dehydrogenase ATP binding site using assessed as photo labeling level at 80 uM by photo affinity labeling/reverse-phase HPLC of Lys-Cdigest assay in presence of ATP
[7] = biological target: Glutamate dehydrogenase 1, mitochondrial (Bos taurus) (UniProt P00366); experiment: Binding affinity to bovine glutamate dehydrogenase ATP binding site using assessed as decrease in photo labeling peak time at 80 uM by photo affinity labeling/reverse-phase HPLC of Lys-Cdigest assay in presence of 100 uM NADH/10 mM glutamate relative to NADH alone

Sequence of Glutamate dehydrogenase 1, mitochondrial (Bos taurus) (P00366 whole entry): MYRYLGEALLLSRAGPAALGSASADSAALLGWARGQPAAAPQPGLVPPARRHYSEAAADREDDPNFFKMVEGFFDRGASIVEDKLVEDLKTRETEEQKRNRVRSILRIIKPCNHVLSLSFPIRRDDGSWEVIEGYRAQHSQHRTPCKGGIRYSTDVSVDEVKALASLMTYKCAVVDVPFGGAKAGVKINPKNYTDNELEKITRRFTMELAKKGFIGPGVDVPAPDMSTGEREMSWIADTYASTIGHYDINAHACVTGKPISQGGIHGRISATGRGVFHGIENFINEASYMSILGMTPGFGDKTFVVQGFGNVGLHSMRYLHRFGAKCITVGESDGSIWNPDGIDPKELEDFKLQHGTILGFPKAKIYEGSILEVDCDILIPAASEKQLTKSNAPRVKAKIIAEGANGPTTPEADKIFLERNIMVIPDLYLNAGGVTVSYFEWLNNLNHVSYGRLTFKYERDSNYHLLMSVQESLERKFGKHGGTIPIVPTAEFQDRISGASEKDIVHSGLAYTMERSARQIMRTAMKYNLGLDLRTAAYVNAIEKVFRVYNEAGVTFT

Activity [1] | Activity [2] | Activity [3] [%] | Retention time [4] [min] | Retention time [5] [min] | Activity [6] [%] | inhibition [7] [%] | SMILES
Active | Active | – | – | – | – | – | C/C(=C\c1ccc(C2(C(F)(F)F)N=N2)cc1O)C(=O)NCCNP(=O)(O)OP(=O)(O)OC[C@H]1O[C@@H](n2cnc3c(N)ncnc32)[C@H](O)[C@@H]1O
Active | 10% | 89 | 21.1 | 21.1 | 55 | 59 | C/C(=C\c1ccc(C2(C(F)(F)F)N=N2)cc1O)C(=O)NCCNP(=O)(O)OP(=O)(O)OP(=O)(O)OC[C@H]1O[C@@H](n2cnc3c(N)ncnc32)[C@H](O)[C@@H]1O
